The values that follow are results of earlier work, collected in patent US5596019A, “N-acyl-cycloalkylamine derivatives as melatonergics” (Bristol-Myers Squibb Company, priority 1995, dated 1997).

Data set [1] has as its system circadian rhythms. Conditions: exogenous melatonin, rats.

`COc1ccc2[nH]cc(CCNC(C)=O)c2c1` [melatonin, N-acetyl-5-methoxytryptamine]: the oral bioavailability result is “often low and variable”. In data set [1], the “synchronization of circadian rhythms” value is given as “synchronize circadian rhythms in rats”.
